Measurements: patent US20130116298A1, “ANTITUMOR AGENT OR POSTOPERATIVE ADJUVANT CHEMOTHERAPEUTIC AGENT FOR HEPATOCELLULAR CARCINOMA TREATMENT” (TAIHO PHARMACEUTICAL CO., LTD., priority 2009, published 2013)

Tests used:
[1] = system: hepatocellular carcinoma; test: Comparative clinical study of TSU-68 therapy in hepatocellular carcinoma patients treated with TACE; format: in vivo; conditions: for Median of progression-free survival: 200 mg orally twice daily, started within 2 weeks after TACE
Description: A comparative clinical study was conducted for the TSU-68 administration group and the TSU-68 non-administration group consisting of cases that were impossible to treat with hepatectomy and PAT and had been treated with TACE and excluding cases evaluated as Child-Pugh grade C in terms of hepatic functional reserve. The antitumor agent used for TACE was epirubicin.
The subject cases were randomly assigned to the TSU-68 administration group and the TSU-68 non-administration group. TSU-68 administration was initiated for cases assigned to the TSU-68 administration group within 2 weeks after TACE. TSU-68 was administered orally at a dose of 200 mg per administration twice daily after breakfast and dinner on consecutive days. No further treatment was given to the TSU-68 non-administration group after TACE and thus only follow-up observation was carried out.
Progression-free survival was defined as survival within the period from the day of TACE designated as the initial date of reckoning to any of dates on which the following events was observed, whichever came first.
1. Date on which the presence of progressive disease (hereinafter referred to as “PD”) was confirmed as a result of assessment of best overall response (date of testing). 2. Date on which a test subject died for any reason (date of death). 3. Date on which a test subject was assessed to have experienced clinically obvious deterioration of the disease or to be in need of post-TACE treatment even without confirmation of PD upon assessment of best overall response (date of assessment).
Best overall response was evaluated by measuring tumor diameters by CT and assaying tumor markers (AFP, PIVKA-II, and AFP-L3 fractions) according to New Guideline to Evaluate the Response to Treatment in Solid Tumor (hereinafter referred to as “RECIST”) (J Natl Cancer Inst 92: 205, 2000).

[2] = system: various human cancer cell lines; conditions: oral administration alone; lung cancer, large bowel cancer, uterus cancer and the like; cited from earlier work
[3] = unresectable hepatocellular carcinoma patients; cited from earlier work
[4] = TACE-treated hepatocellular carcinoma patients of Child-Pugh grade A

## Cc1[nH]c(/C=C2\C(=O)Nc3ccccc32)c(C)c1CCC(=O)O [TSU-68, (Z)-5-[(1,2-dihydro-2-oxo-3H-indol-3-ylidene)methyl]2,4-dimethyl-1H-pyrrol-3-propanoic acid]
[1]; TACE-treated hepatocellular carcinoma patients
  Progression-free survival compared with the TSU-68 non-administration group: significantly extended
[1]; [4]
  Progression-free survival compared with the TSU-68 non-administration group: significantly extended
  Median of progression-free survival: 5.8 month
[1]; major adverse reactions: abdominal pain, ascites, edema, general fatigue, fever, feeling of sickness
  Severity of each adverse reaction: grade 1 or 2
[1]; post-TACE hepatocellular carcinoma patients
  Median of progression-free survival: 5.2 month
[2]
  Antitumor effect (tumor growth): effective for inhibiting tumor growth

## CNC(=O)c1cc(Oc2ccc(NC(=O)Nc3ccc(Cl)c(C(F)(F)F)c3)cc2)ccn1 [sorafenib]
[3]
  Increase of AST level in patients: 45%
  Increase of bilirubin level (corresponding to score 3 or more) in patients: 32%
